Laboratory results taken from patent publication US10239887B2, “Positive allosteric modulators of the muscarinic acetylcholine receptor M4” (Vanderbilt University, priority 2016, dated 2019).
Counter-ions that a name gives are not always drawn.

Molecular target: T1, human mAChR M4 (Homo sapiens, UniProt P08173)
T1 sequence (P08173 1-479): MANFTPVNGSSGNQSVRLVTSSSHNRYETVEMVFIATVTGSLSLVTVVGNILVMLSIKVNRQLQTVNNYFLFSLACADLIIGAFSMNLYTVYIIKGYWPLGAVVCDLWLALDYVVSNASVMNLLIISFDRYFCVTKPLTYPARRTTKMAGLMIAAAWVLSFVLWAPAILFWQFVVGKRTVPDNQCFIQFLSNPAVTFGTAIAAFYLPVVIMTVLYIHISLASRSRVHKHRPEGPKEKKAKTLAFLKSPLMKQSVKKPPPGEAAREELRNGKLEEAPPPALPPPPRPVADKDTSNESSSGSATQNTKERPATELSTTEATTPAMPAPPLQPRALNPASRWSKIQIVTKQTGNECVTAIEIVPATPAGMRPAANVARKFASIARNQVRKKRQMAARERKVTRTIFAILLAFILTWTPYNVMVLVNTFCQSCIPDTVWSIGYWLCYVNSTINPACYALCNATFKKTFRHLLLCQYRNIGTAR
Test: mAChR M4 cell-based functional assay (calcium flux), human M4

[1] = Human M4 EC50 (nM), Table 10, calcium flux, PAM activity with EC20 acetylcholine
[2] = Table 10, % ACh maximum at 30 μM
[3] = Human M4 EC50 (nM), Table 10, unit μM (bounds)
[4] = Human M4 EC50 (nM), Table 11, calcium flux, PAM activity with EC20 acetylcholine
[5] = Table 11, % ACh maximum at 30 μM
[6] = Human M4, % ACh maximum at 30 μM
[7] = Human M4 EC50, CHO-K1 hM4-Gqi5 cells, calcium flux, increase in EC20 acetylcholine response

Row | EC50 [1] | Emax [2] | Compound | other results
1 |  | 41.9% | COc1ccc(CNc2ncnc3c2oc2nc(C)c(Cl)c(C)c23)cc1F [Compound 253, 8-chloro-N-[(3-fluoro-4-methoxy-phenyl)methyl]-7,9-dimethyl-pyrido [3′,2′:4,5]furo[3,2-d] pyrimidin-4-amine hydrochloride] | EC50 [3]: > 10000 nM
2 | 3620 nM | 60.6% | Cc1nc2sc3c(NC4CN(c5ncc(C(F)(F)F)cn5)C4)ncnc3c2c(C)c1Cl [Compound 272, 8-chloro-7,9-dimethyl-N-[1-[5-(trifluoromethyl)pyrimidin-2-yl]azetidin-3-yl]pyrido[3′,2′:4,5] hieno[3,2-d]pyrimidin-4-amine dihydrochloride] | 
3 | 154 nM | 87.6% | CNC(=O)c1cc(CNc2ncnc3c2sc2nnc(C)c(C)c23)ccc1F [Compound 187, 5-[[(3,4-dimethylpyrimido [4′,5′:4,5]thieno[2,3-c]pyridazin-8-yl)amino]methyl]-2-fluoro-N-methyl-benzamide] | 
4 | 1510 nM | 64.9% | Cc1nc2sc3c(N4CCC(F)C4)ncnc3c2c(C)c1Cl (stereo not drawn) [Compound 258, 8-chloro-4-(3-fluoropyrrolidin-1-yl)-7,9-dimethyl-pyrido [3′,2′:4,5]thieno[3,2-d] pyrimidine hydrochloride] | 
5 | 831 nM | 94.3% | Cc1nnc2sc3c(NCc4ccc(C(C)(C)O)cc4Cl)ncnc3c2c1C [Compound 189, 2-[3-chloro-4-[[(3,4-dimethylpyrimido [4′,5′:4,5]thieno[2,3-c]pyridazin-8-yl)amino]methyl]phenyl]propan-2-ol] | 
6 | 359 nM | 75.5% | Cc1cc(C)c2c(n1)sc1c(NC3CCC3)ncnc12 [Compound 200, N-cyclobutyl-7,9-dimethyl-pyrido [3′,2′:4,5]thieno[3,2-d] pyrimidin-4-amine] | 
7 | 1880 nM | 54.4% | Cc1nc2oc3c(NCc4cccc(C(C)(C)O)c4)ncnc3c2c(C)c1Cl [Compound 288, 2-[3-[[(8-chloro-7,9-dimethyl-pyrido[3′,2′:4,5]furo[3,2-d]pyrimidin-4-yl)amino]methyl]phenyl]propan-2-ol] | 
8 |  | 74.7% | Cc1ncc(CNc2ncnc3c2sc2nc(C)c(Cl)c(C)c23)cn1 [Compound 271, 8-chloro-7,9-dimethyl-N-[(2-methylpyrimidin-5-yl)methyl]pyrido [3′,2′:4,5]thieno[3,2-d] pyrimidin-4-amine dihydrochloride] | EC50 [3]: > 10000 nM

Continued, molecule first:

Row | Compound | EC50 [1] | Emax [2] | other results
9 | Cc1nnc2sc3c(NC(C)c4ccc(C(C)(C)O)cc4)ncnc3c2c1C (stereo not drawn) [Compound 100, 2-[4-[1-[(3,4-dimethylpyrimido [4′,5′:4,5]thieno[2,3-c]pyridazin-8-yl)amino]ethyl]phenyl]propan-2-ol] | 7720 nM | 52.2% | 
10 | Cc1nnc2sc3c(N4CCC(C(=O)Nc5ccc(C(F)(F)F)cc5)C4)ncnc3c2c1C (stereo not drawn) [Compound 173, 1-(3,4-dimethylpyrimido [4′,5′:4,5]thieno[2,3-c]pyridazin-8-yl)-N-[4-(trifluoromethyl)phenyl] pyrrolidine-3-carboxamide] | 3310 nM | 24.4% | 
11 | Cc1nnc2sc3c(N4CC[C@@H](Oc5ccnc(Cl)c5)C4)ncnc3c2c1C [Compound 336, 8-[(3R)-3-[(2-chloro-4-pyridyl)oxy]pyrrolidin-1-yl]-3,4-dimethyl-pyrimido [4′,5′:4,5]thieno[2,3-c] pyridazine] |  |  | EC50 [4]: 105 nM; Emax [5]: 76.9%
12 | Cc1cc(C)c(OC2CN(c3ncnc4c3sc3nnc(C)c(C)c34)C2)cn1 [Compound 351, 8-[3-[(4,6-dimethyl-3-pyridyl)oxy]azetidin-1-yl]-3,4-dimethyl-pyrimido[4′,5′:4,5]thieno [2,3-c]pyridazine dihydrochloride] |  |  | EC50 [4]: 444 nM; Emax [5]: 62.1%
13 | Cc1nnc2sc3c(NCc4ccc(C(=O)NC5CC6(COC6)C5)cc4)ncnc3c2c1C [Compound 154, 4-[[(3,4-dimethylpyrimido [4′,5′:4,5]thieno[2,3-c]pyridazin-8-yl)amino]methyl]-N-(2-oxaspiro [3.3]heptan-6-yl)benzamide] | 109 nM | 87.2% | 
14 | Cc1nnc2oc3c(N4CC5(COC5)C4)ncnc3c2c1C [Compound 73, 3,4-dimethyl-8-(2-oxa-6-azaspiro[3.3]heptan-6-yl)pyrimido[4′,5′:4,5]furo [2,3-c]pyridazine] |  |  | Emax [6]: 46.1%; EC50 [7]: 4840 nM
15 | Cc1nnc2oc3c(NCc4ccc(C5(O)CCC5)cc4)ncnc3c2c1C [Compound 64, 1-[4-[[(3,4-dimethylpyrimido [4′,5′:4,5]furo[2,3-c]pyridazin-8-yl)amino]methyl]phenyl] cyclobutanol] |  |  | Emax [6]: 58.2%; EC50 [7]: 862 nM
16 | Cc1nnc2sc3c(NCc4ccc(C(=O)N[C@H](C)C(F)(F)F)c(Cl)c4)ncnc3c2c1C [Compound 320, 2-chloro-4-[[(3,4-dimethylpyrimido [4′,5′:4,5]thieno[2,3-c]pyridazin-8-yl)amino]methyl]-N-[(1R)-2,2,2-trifluoro-1-methyl-ethyl] benzamide] |  |  | EC50 [4]: 532 nM; Emax [5]: 81.1%
17 | Cc1nnc2oc3c(NC4CCCC4)ncnc3c2c1C [Compound 70, N-cyclopentyl-3,4-dimethyl-pyrimido [4′,5′:4,5]furo[2,3-c]pyridazin-8-amine] |  |  | Emax [6]: 45.9%; EC50 [7]: 818 nM
18 | Cc1nnc2sc3c(NCc4ccc(F)c(C(=O)NC(C)C)c4)ncnc3c2c1C [Compound 179, 5-[[(3,4-dimethylpyrimido [4′,5′:4,5]thieno[2,3-c]pyridazin-8-yl)amino]methyl]-2-fluoro-N-isopropyl-benzamide] | 748 nM | 95.2% | 
19 | Cc1nnc2oc3c(NCc4cccc(C(C)(C)O)c4)ncnc3c2c1C [Compound 67, 2-[3-[[(3,4-dimethylpyrimido [4′,5′:4,5]furo[2,3-c]pyridazin-8-yl)amino]methyl]phenyl]propan-2-ol] |  |  | Emax [6]: 63.4%
20 | COc1c(F)cc(CNc2ncnc3c2sc2nnc(C)c(C)c23)cc1F [Compound 136, N-[(3,5-difluoro-4-methoxy-phenyl)methyl]-3,4-dimethyl-pyrimido [4′,5′:4,5]thieno[2,3-c] pyridazin-8-amine] | 388 nM | 96.8% | 
21 | [2H]C([2H])([2H])OC(C)(C)c1ccc(CNc2ncnc3c2sc2nnc(C)c(C)c23)cc1 [Compound 370, 3,4-dimethyl-N-[[4-[1-methyl-1-(trideuteriomethoxy)ethyl]phenyl]methyl] pyrimido[4′,5′:4,5]thieno [2,3-c]pyridazin-8-amine] |  |  | EC50 [4]: 326 nM; Emax [5]: 93.1%
22 | Cc1nnc2sc3c(NC4CN(c5cc(Cl)ncc5Cl)C4)ncnc3c2c1C [Compound 85, N-[1-(2,5-dichloro-4-pyridyl)azetidin-3-yl]-3,4-dimethyl-pyrimido [4′,5′:4,5]thieno[2,3-c] pyridazin-8-amine] |  | 74.3% | 
23 | Cc1cc(C)c2c(n1)oc1c(NC3CC3)ncnc12 [Compound 295, N-cyclopropyl-7,9-dimethyl-pyrido[3′,2′:4,5]furo[3,2-d]pyrimidin-4-amine hydrochloride] |  |  | Emax (%) [2]: 63.93%
24 | Cc1nnc2sc3c(NCc4ccc(-c5cccn5C)cc4)ncnc3c2c1C [Compound 341, 3,4-dimethyl-N-[[4-(1-methylpyrrol-2-yl)phenyl]methyl]pyrimido[4′,5′:4,5] thieno[2,3-c]pyridazin-8-amine] |  |  | EC50 [4]: 1290 nM; Emax [5]: 81.2%
25 | Cc1nnc2sc3c(NCC45CC(C(C)(C)O)(C4)C5)ncnc3c2c1C [Compound 138, 2-[1-[[(3,4-dimethylpyrimido [4′,5′:4,5]thieno[2,3-c]pyridazin-8-yl)amino]methyl]-3-bicyclo[1.1.1]pentanyl]propan-2-ol] | 3090 nM | 85% | 
26 | Cc1nnc2sc3c(NCc4ccc(N5CCN(C)CC5)cc4)ncnc3c2c1C [Compound 111, 3,4-dimethyl-N-[[4-(4-methylpiperazin-1-yl)phenyl]methyl] pyrimido[4′,5′:4,5] thieno[2,3-c] pyridazin-8-amine hydrochloride] | 126 nM | 70.5% | 
27 | Cc1nnc2sc3c(NCc4ccc(C(=O)NC(C)C(C)(C)CO)cc4)ncnc3c2c1C (stereo not drawn) [Compound 158, 4-[[(3,4-dimethylpyrimido [4′,5′:4,5]thieno[2,3-c]pyridazin-8-yl)amino]methyl]-N-(3-hydroxy-1,2,2-trimethyl-propyl) benzamide] | 220 nM | 85% | 
28 | Cc1nnc2sc3c(N4CC(C)(O)C4)ncnc3c2c1C [Compound 34, 1-(3,4-dimethylpyrimido [4′,5′:4,5]thieno[2,3-c]pyridazin-8-yl)-3-methylazetidin-3-ol] |  |  | Emax [6]: 59%; EC50 [7]: 660 nM
29 | Cc1nnc2sc3c(N4CC(Oc5ccnc(Cl)c5)C4)ncnc3c2c1C [Compound 349, 8-[3-[(2-chloro-4-pyridyl)oxy]azetidin-1-yl]-3,4-dimethyl-pyrimido[4′,5′:4,5] thieno[2,3-c]pyridazine dihydrochloride] |  |  | EC50 [4]: 210 nM; Emax [5]: 81.2%
30 | Cc1nc2oc3c(NCc4ccc(C(C)(C)O)cc4)ncnc3c2c(C)c1Cl [Compound 39, 2-[4-[[(8-chloro-7,9-dimethyl-pyrido[3′,2′:4,5]furo[3,2-d]pyrimidin-4-yl)amino]methyl]phenyl] propan-2-ol] |  |  | Emax [6]: 61.8%; EC50 [7]: 110 nM
